22 compounds from BindingDB's records for doi:10.1016/0968-0896(96)00130-7 (Sankyo, 1996) can be followed below.

pKi: −log10 of the molar value.

In this assay the target is T1, Dimer of Gag-Pol polyprotein [489-587] (Human immunodeficiency virus 1, UniProt P12497).
T1 construct: 489-587
The assay can be described thus: Protease Inhibition Assay. The note with it: pH 4.7; 37 °C. The protocol: The inhibitory activities of the compounds toward HIV-1 PR were determined by sodium dodecyl sulfate-polyacrylamide gel electrophoresis (SDS-PAGE) assay. The Ki values of active compounds were determined using the partially purified protease and the synthetic substrate Ac-Ser-Gln-AsnTyr-Pro-Ile-Val-NH2.

In the case of `CC(C)(C)NC(=O)[C@@H]1C[C@@H](Cl)CN1C(=O)[C@@H](O)[C@H](Cc1ccccc1)NC(=O)[C@H](CC(N)=O)NC(=O)OCc1ccccc1` [Z-Asn-(2S,3S).AHPBA. [4(R ).chloro] Pro tert-butylamide], the pKi (as a rule, −log10 of the Ki, conventionally taken in molar units) is 7.05.

In the case of `COC1(OC)C[C@@H](C(=O)NC(C)(C)C)N(C(=O)[C@@H](O)[C@H](Cc2ccccc2)NC(=O)[C@H](CC(N)=O)NC(=O)OCc2ccccc2)C1` [benzyl N-[(1S)-1-{[(2S,3S)-4-[(2S)-2-(tert-butylcarbamoyl)-4,4-dimethoxypyrrolidin-1-yl]-3-hydroxy-4-oxo-1-phenylbutan-2-yl]carbamoyl}-2-carbamoylethyl]carbamate], the pKi was 7.04.

As for `COc1ccc2[nH]c(C(=O)N[C@@H](CC(N)=O)C(=O)N[C@@H](Cc3ccccc3)[C@H](O)C(=O)N3C[C@@H](Cl)C[C@H]3C(=O)NC(C)(C)C)cc2c1` [(2S)-N-[(2S,3S)-4-[(2S,4S)-2-(tert-butylcarbamoyl)-4-chloropyrrolidin-1-yl]-3-hydroxy-4-oxo-1-phenylbutan-2-yl]-2-[(5-methoxy-1H-indol-2-yl)formamido]butanediamide], the pKi was 7.67.

For `Cn1nc(C(=O)N[C@@H](CC(N)=O)C(=O)N[C@@H](Cc2ccccc2)[C@H](O)C(=O)N2C[C@@H](Cl)C[C@H]2C(=O)NC(C)(C)C)c2ccccc21` [(2S)-N-[(2S,3S)-4-[(2S,4S)-2-(tert-butylcarbamoyl)-4-chloropyrrolidin-1-yl]-3-hydroxy-4-oxo-1-phenylbutan-2-yl]-2-[(1-methyl-1H-indazol-3-yl)formamido]butanediamide], the pKi is 7.80.

As to `COc1cccc2cc(C(=O)N[C@@H](CC(N)=O)C(=O)N[C@@H](Cc3ccccc3)[C@H](O)C(=O)N3C[C@@H](Cl)C[C@H]3C(=O)NC(C)(C)C)oc12` [(2S)-N-[(2S,3S)-4-[(2S,4S)-2-(tert-butylcarbamoyl)-4-chloropyrrolidin-1-yl]-3-hydroxy-4-oxo-1-phenylbutan-2-yl]-2-[(7-methoxy-1-benzofuran-2-yl)formamido]butanediamide], the pKi is 8.35.

Take `CC(C)(C)NC(=O)[C@@H]1CC(Sc2ccccc2)CN1C(=O)[C@@H](O)[C@H](Cc1ccccc1)NC(=O)[C@H](CC(N)=O)NC(=O)OCc1ccccc1` (stereo partly drawn) [Z.Asn-(2S,3S)-AHPBA-[4(S)-phenylthio]Pro tert-butylamide]: the pKi was 6.90.

Compound `Cn1cc(C(=O)N[C@@H](CC(N)=O)C(=O)N[C@@H](Cc2ccccc2)[C@H](O)C(=O)N2C[C@@H](Cl)C[C@H]2C(=O)NC(C)(C)C)c2ccccc21` [(1-Methylindole-3-carbonyl)- Asn - (2S,3S)-AHPBA-[4(S)-chloro]Pro tert-butylamide] gave a pKi of 7.70.

Regarding `CC(C)(C)NC(=O)[C@@H]1C[C@@H](O)CN1C(=O)[C@@H](O)[C@H](Cc1ccccc1)NC(=O)[C@H](CC(N)=O)NC(=O)OCc1ccccc1` [benzyl N-[(1S)-1-{[(2S,3S)-4-[(2S,4R)-2-(tert-butylcarbamoyl)-4-hydroxypyrrolidin-1-yl]-3-hydroxy-4-oxo-1-phenylbutan-2-yl]carbamoyl}-2-carbamoylethyl]carbamate], the pKi is 7.25.

For the compound `CC(C)(C)NC(=O)[C@@H]1CC(=O)CN1C(=O)[C@@H](O)[C@H](Cc1ccccc1)NC(=O)[C@H](CC(N)=O)NC(=O)OCc1ccccc1` [Z-Asn.(2S,3S)-AHPBA.(4.oxo)Pro tert-butylamide], the pKi is 7.90.

`CC(C)(C)NC(=O)[C@@H]1CCCN1C(=O)[C@@H](O)[C@H](Cc1ccccc1)NC(=O)[C@H](CC(N)=O)NC(=O)OCc1ccccc1` [benzyl N-[(1S)-1-{[(2S,3S)-4-[(2S)-2-(tert-butylcarbamoyl)pyrrolidin-1-yl]-3-hydroxy-4-oxo-1-phenylbutan-2-yl]carbamoyl}-2-carbamoylethyl]carbamate] showed a pKi of 7.24.

Take `CC(C)(C)NC(=O)[C@@H]1[C@@H](O)CCN1C(=O)[C@@H](O)[C@H](Cc1ccccc1)NC(=O)[C@H](CC(N)=O)NC(=O)OCc1ccccc1` [Z.Asn-(2S,3S).AHPBA.[3(S)-hydroxy]Pro tert-butyl-amide]: the pKi is 7.49.

For the compound `CC(C)(C)NC(=O)[C@@H]1CC(O)CN1C(=O)[C@@H](O)[C@H](Cc1ccccc1)NC(=O)[C@H](CC(N)=O)NC(=O)OCc1ccccc1` (stereo partly drawn) [Z.Asn-(2S,3S)-AHPBA-[4(S)-hydroxy]Pro tert-butylamide], the pKi was 9.00.

Compound `CC(C)(C)NC(=O)[C@@H]1C[C@H](Cl)CN1C(=O)[C@@H](O)[C@H](Cc1ccccc1)NC(=O)[C@H](CC(N)=O)NC(=O)c1noc2ccccc12` [(2S)-2-(1,2-benzoxazol-3-ylformamido)-N-[(2S,3S)-4-[(2S,4S)-2-(tert-butylcarbamoyl)-4-chloropyrrolidin-1-yl]-3-hydroxy-4-oxo-1-phenylbutan-2-yl]butanediamide] had a pKi of 7.55.

For the compound `CC(C)(C)NC(=O)[C@@H]1CC(F)CN1C(=O)[C@@H](O)[C@H](Cc1ccccc1)NC(=O)[C@H](CC(N)=O)NC(=O)OCc1ccccc1` (stereo partly drawn) [Z-Asn-(2S,3S)-AHPBA-[4(S)-fluoro] Pro tert-butylamide], the pKi is 7.74.

The compound `CC(C)(C)NC(=O)[C@@H]1C[C@H](Cl)CN1C(=O)[C@@H](O)[C@H](Cc1ccccc1)NC(=O)[C@H](CC(N)=O)NC(=O)c1cnc2ccccc2n1` [(Quinoxaline-2-carbonyl)-Asn-(2S,3S)-AHPBA-[4(S)-chloro]Pro tert-butylamide] had a pKi of 8.33.

`CC(C)(C)NC(=O)[C@@H]1[C@@H](Cl)CCN1C(=O)[C@@H](O)[C@H](Cc1ccccc1)NC(=O)[C@H](CC(N)=O)NC(=O)OCc1ccccc1` [Z-Asn.(2S,3S)-AHPBA.[3(S)-chloro]Pro tert-butylamide] showed a negative logarithm of the Ki (pKi) of 7.84.

The compound `CC(C)(C)NC(=O)[C@@H]1CC(Cl)CN1C(=O)[C@@H](O)[C@H](Cc1ccccc1)NC(=O)[C@H](CC(N)=O)NC(=O)OCc1ccccc1` (stereo partly drawn) [benzyl N-[(1S)-1-{[(2S,3S)-4-[(2S)-2-(tert-butylcarbamoyl)-4-chloropyrrolidin-1-yl]-3-hydroxy-4-oxo-1-phenylbutan-2-yl]carbamoyl}-2-carbamoylethyl]carbamate] showed a pKi of 8.10.

As for `CC(C)(C)NC(=O)[C@@H]1C(O)CCN1C(=O)[C@@H](O)[C@H](Cc1ccccc1)NC(=O)[C@H](CC(N)=O)NC(=O)OCc1ccccc1` (stereo partly drawn) [benzyl N-[(1S)-1-{[(2S,3S)-4-[(2S)-2-(tert-butylcarbamoyl)-3-hydroxypyrrolidin-1-yl]-3-hydroxy-4-oxo-1-phenylbutan-2-yl]carbamoyl}-2-carbamoylethyl]carbamate], the pKi is 10.00.

The compound `CC(C)(C)NC(=O)[C@@H]1CC(Br)CN1C(=O)[C@@H](O)[C@H](Cc1ccccc1)NC(=O)[C@H](CC(N)=O)NC(=O)OCc1ccccc1` (stereo partly drawn) [Z-Asn-(2S,3S)-AHPBA.[4(S)-bromo]Pro tert-butylamide] gave a negative logarithm of the Ki (pKi) of 7.65.

The compound `CC(C)(C)NC(=O)[C@@H]1CC(F)(F)CN1C(=O)[C@@H](O)[C@H](Cc1ccccc1)NC(=O)[C@H](CC(N)=O)NC(=O)OCc1ccccc1` [benzyl N-[(1S)-1-{[(2S,3S)-4-[(2S)-2-(tert-butylcarbamoyl)-4,4-difluoropyrrolidin-1-yl]-3-hydroxy-4-oxo-1-phenylbutan-2-yl]carbamoyl}-2-carbamoylethyl]carbamate] had a negative-log Ki (pKi) of 7.46.

In turn, `CC(C)(C)NC(=O)[C@@H]1C[C@H](Cl)CN1C(=O)[C@@H](O)[C@H](Cc1ccccc1)NC(=O)[C@H](CC(N)=O)NC(=O)c1cc2cc(F)ccc2[nH]1` [(2S)-N-[(2S,3S)-4-[(2S,4S)-2-(tert-butylcarbamoyl)-4-chloropyrrolidin-1-yl]-3-hydroxy-4-oxo-1-phenylbutan-2-yl]-2-[(5-fluoro-1H-indol-2-yl)formamido]butanediamide] had a pKi of 7.90.

`CC(C)(C)NC(=O)[C@@H]1CC(N2CCOCC2)CN1C(=O)[C@@H](O)[C@H](Cc1ccccc1)NC(=O)[C@H](CC(N)=O)NC(=O)OCc1ccccc1` (stereo partly drawn) [benzyl N-[(1S)-1-{[(2S,3S)-4-[(2S)-2-(tert-butylcarbamoyl)-4-(morpholin-4-yl)pyrrolidin-1-yl]-3-hydroxy-4-oxo-1-phenylbutan-2-yl]carbamoyl}-2-carbamoylethyl]carbamate] had a pKi of 9.00.
